US20180251431A1 (VERTEX PHARMACEUTICALS INCORPORATED, priority 2016, published 2018)
Read-outs that look alike come from different tables or passages of the source.

Tested on: HEK293 cells
Experiment: HEK293 VLCFA-LPC IC50 determination (13C-labeled C26:0 LPC by UHPLC/MS)
Format: cell-based, human
Conditions: average of one or more replicates, read-out: Average HEK293 IC50
How it was run: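 Suspension HEK293 cells (final 0.5 million/mL after mixing with equal volume) incubated 48 hours with compound plus 13C-acetate (1.0 mg/mL in added media), shaking at 37° C. Lipids extracted with hexane/isopropanol or methanol, C13:0 LPC standard. UHPLC/MS of 13C-labeled C26:0 LPC (638.500/104.100 m/z); IC50 by four-parameter fit.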

[1] = Homo sapiens, HEK293, 48 h, 13C-labeled C26:0 LPC, 48 hours
[2] = Homo sapiens, HEK293, HEK293 cells

Q: Which IC50 [1] does the source give for `COc1nccc(-n2ccc(NC(=O)C3(c4ccccc4F)CC3)n2)c1C` [Compound 340, 1-(2-fluorophenyl)-N-[1-(2-methoxy-3-methyl-4-pyridyl)pyrazol-3-yl]cyclopropanecarboxamide] here?
A: > 5000 nM

Q: How did the IC50 [2] turn out when `Cc1ncc(-n2ccc(NC(=O)C3(c4ccccc4F)CC3)n2)cn1` [Compound 241, 1-(2-fluorophenyl)-N-[1-(2-methylpyrimidin-5-yl)pyrazol-3-yl]cyclopropanecarboxamide] was run?
A: > 5000 nM

Q: Which IC50 [2] does the source give for `Cc1cc(NC(=O)C2(c3ncccc3F)CC2(C)C)nn1-c1ccc(F)cc1F` (stereo not drawn) [Compound 515, N-[1-(2,4-difluorophenyl)-5-methyl-pyrazol-3-yl]-1-(3-fluoro-2-pyridyl)-2,2-dimethyl-cyclopropanecarboxamide] here?
A: > 5000 nM

Q: How did the IC50 [2] turn out when `O=C(Nc1cc(F)n(-c2cncc(F)c2)n1)C1(c2ncccc2F)CC1` [Compound 462, N-[5-fluoro-1-(5-fluoro-3-pyridyl)pyrazol-3-yl]-1-(3-fluoro-2-pyridyl)cyclopropanecarboxamide] was run?
A: > 5000 nM

Q: For `COc1cncc(F)c1-n1ccc(NC(=O)C2(c3ccccc3F)CC2)n1` [Compound 345, N-[1-(3-fluoro-5-methoxy-4-pyridyl)pyrazol-3-yl]-1-(2-fluorophenyl)cyclopropanecarboxamide], which IC50 [1] is on record?
A: > 2000 nM

Q: Which IC50 [1] does the source give for `CC(C)(O)c1cc(-n2ccc(NC(=O)C3(c4ccccc4F)CC3)n2)ccn1` [Compound 334, 1-(2-fluorophenyl)-N-[1-[2-(1-hydroxy-1-methyl-ethyl)-4-pyridyl]pyrazol-3-yl]cyclopropanecarboxamide] here?
A: > 5000 nM

Q: With `COc1cnccc1-n1ccc(NC(=O)C2(c3ccccc3F)CC2)n1` [Compound 411, 1-(2-fluorophenyl)-N-[1-(3-methoxy-4-pyridyl)pyrazol-3-yl]cyclopropanecarboxamide] as the compound, how does the IC50 [2] read?
A: > 5000 nM

Q: For `O=C(Cc1ccccc1)Nc1ccn(-c2nccs2)n1` [Compound 89, 2-phenyl-N-(1-thiazol-2-ylpyrazol-3-yl)acetamide], which IC50 [2] is on record?
A: 340 nM

Q: Which IC50 [2] does the source give for `O=C(Nc1ccn(-c2cncnc2)n1)C1(c2ccccc2)CC1` [Compound 98, 1-phenyl-N-(1-pyrimidin-5-ylpyrazol-3-yl)cyclopropanecarboxamide] here?
A: 110 nM

Q: Which IC50 [2] does the source give for `[2H]C([2H])([2H])Oc1cc(-n2ccc(NC(=O)C3(c4ccccc4F)CC3)n2)ccn1` [Compound 439, 1-(2-fluorophenyl)-N-[1-[2-(trideuteriomethoxy)-4-pyridyl]pyrazol-3-yl]cyclopropanecarboxamide] here?
A: 80 nM

Q: `O=C(Nc1ccn(-c2cccc(Cl)c2)n1)C1(c2ccccc2)CC1(F)F` (single isomer, unassigned) [Compound 437] was tested. Which IC50 (13C-labeled C26:0 LPC, 48 hours) did it give?
A: 2400 nM

Q: For `O=C(Cc1ncccn1)Nc1ccn(-c2ccccc2)n1` [Compound 220, N-(1-phenylpyrazol-3-yl)-2-pyrimidin-2-yl-acetamide], which IC50 [2] is on record?
A: > 2000 nM

Q: For `COc1ccccc1C1(C(=O)Nc2ccn(-c3ccnc(F)c3)n2)CC1` [Compound 389, N-[1-(2-fluoro-4-pyridyl)pyrazol-3-yl]-1-(2-methoxyphenyl)cyclopropanecarboxamide], which IC50 [2] is on record?
A: > 5000 nM

Q: `CCOc1ccc(-n2ccc(NC(=O)C3(c4ccccc4F)CC3)n2)cn1` [Compound 430, N-[1-(6-ethoxy-3-pyridyl)pyrazol-3-yl]-1-(2-fluorophenyl)cyclopropanecarboxamide] was tested. Which IC50 [2] did it give?
A: > 5000 nM

Q: For `O=C(Nc1ccn(-c2ccncc2)n1)C1(c2ncccc2F)CC12CC2` (stereo not drawn) [Compound 526, 2-(3-fluoro-2-pyridyl)-N-[1-(4-pyridyl)pyrazol-3-yl]spiro[2.2]pentane-2-carboxamide], which IC50 [2] is on record?
A: 1900 nM

Q: Which IC50 [1] does the source give for `N#Cc1cc(F)cc(-n2ccc(NC(=O)C3(c4ccccc4F)CC3)n2)c1` [Compound 352, N-[1-(3-cyano-5-fluoro-phenyl)pyrazol-3-yl]-1-(2-fluorophenyl)cyclopropanecarboxamide] here?
A: > 5000 nM

Q: With `O=C(Nc1ccn(-c2ccnc(F)c2)n1)C1(c2ccccc2)CC1(Cl)Cl` (single isomer, unassigned) [Compound 370] as the compound, how does the IC50 [1] read?
A: 170 nM

Q: Which IC50 [2] does the source give for `O=C(Nc1ccn(-c2ccnc(F)c2)n1)C1(c2ccc(Cl)cc2F)CC1` [Compound 262, 1-(4-chloro-2-fluoro-phenyl)-N-[1-(2-fluoro-4-pyridyl)pyrazol-3-yl]cyclopropanecarboxamide] here?
A: 300 nM

Q: `Cc1c(-n2ccc(NC(=O)C3(c4ccccc4F)CC3)n2)ccnc1F` [Compound 351, N-[1-(2-fluoro-3-methyl-4-pyridyl)pyrazol-3-yl]-1-(2-fluorophenyl)cyclopropanecarboxamide] was tested. Which IC50 [1] did it give?
A: 420 nM

Q: `Cc1cc(NC(=O)C2(c3ncccc3F)CC2)nn1-c1ccc(F)cc1F` [Compound 451, N-[1-(2,4-difluorophenyl)-5-methyl-pyrazol-3-yl]-1-(3-fluoro-2-pyridyl)cyclopropanecarboxamide] was tested. Which IC50 [2] did it give?
A: 2400 nM

Q: With `O=C(Cc1ccc(OC(F)(F)F)cc1)Nc1ccn(-c2ccccc2)n1` [Compound 53, N-(1-phenylpyrazol-3-yl)-2-[4-(trifluoromethoxy)phenyl]acetamide] as the compound, how does the IC50 [2] read?
A: > 5000 nM

Q: Which IC50 [2] does the source give for `COc1cccc(C2(C(=O)Nc3ccn(-c4ccccc4)n3)CC2)c1` [Compound 26, 1-(3-methoxyphenyl)-N-(1-phenylpyrazol-3-yl)cyclopropanecarboxamide] here?
A: 270 nM

Q: Which IC50 [2] does the source give for `COc1cc(CC(=O)Nc2ccn(-c3ccccc3)n2)ccc1O` [Compound 9, 2-(4-hydroxy-3-methoxy-phenyl)-N-(1-phenylpyrazol-3-yl)acetamide] here?
A: > 5000 nM

Q: With `COc1ncc(-n2ccc(NC(=O)C3(c4ccccc4F)CC3)n2)cc1F` [Compound 348, N-[1-(5-fluoro-6-methoxy-3-pyridyl)pyrazol-3-yl]-1-(2-fluorophenyl)cyclopropanecarboxamide] as the compound, how does the IC50 [1] read?
A: 33 nM

Q: For `O=C(Nc1ccn(-c2ccccc2)n1)C1(c2cnccn2)CC1` [Compound 477, N-(1-phenylpyrazol-3-yl)-1-pyrazin-2-yl-cyclopropanecarboxamide], which IC50 [2] is on record?
A: 1500 nM

Q: For `CC1(C)CC1(C(=O)Nc1ccn(-c2ccc(F)cc2)n1)c1ncccc1F` (stereo not drawn) [Compound 513, N-[1-(4-fluorophenyl)pyrazol-3-yl]-1-(3-fluoro-2-pyridyl)-2,2-dimethyl-cyclopropanecarboxamide], which IC50 [2] is on record?
A: 980 nM

Q: With `Cn1nccc1-n1ccc(NC(=O)C2(c3ccccc3F)CC2)n1` [Compound 417, 1-(2-fluorophenyl)-N-[1-(2-methylpyrazol-3-yl)pyrazol-3-yl]cyclopropanecarboxamide] as the compound, how does the IC50 [2] read?
A: 290 nM

Q: With `O=C(Nc1ccn(-c2ccnc(F)c2)n1)C1(c2cccc(F)c2)CC1` [Compound 254, 1-(3-fluorophenyl)-N-[1-(2-fluoro-4-pyridyl)pyrazol-3-yl]cyclopropanecarboxamide] as the compound, how does the IC50 [2] read?
A: 190 nM

Q: For `O=C(Nc1ccn(-c2ccnc(F)c2)n1)C1(c2cc(F)ccc2F)CC1` [Compound 260, 1-(2,5-difluorophenyl)-N-[1-(2-fluoro-4-pyridyl)pyrazol-3-yl]cyclopropanecarboxamide], which IC50 [2] is on record?
A: 170 nM

Q: Which IC50 [2] does the source give for `O=C(Nc1ccn(-c2cccnc2)n1)C1(c2ccccc2F)CC1` [Compound 214, 1-(2-fluorophenyl)-N-[1-(3-pyridyl)pyrazol-3-yl]cyclopropanecarboxamide] here?
A: 45 nM

Q: For `COc1ccc(-n2ccc(NC(=O)C3(c4ccccc4F)CC3)n2)cc1F` [Compound 322, N-[1-(3-fluoro-4-methoxy-phenyl)pyrazol-3-yl]-1-(2-fluorophenyl)cyclopropanecarboxamide], which IC50 [1] is on record?
A: 4000 nM

Q: With `O=C(Cc1ccccc1F)Nc1ccn(-c2ccccc2)n1` [Compound 1, 2-(2-fluorophenyl)-N-(1-phenylpyrazol-3-yl)acetamide] as the compound, how does the IC50 [2] read?
A: 68 nM

Q: For `Cc1cc(-n2ccc(NC(=O)C3(c4ccccc4)CC3)n2)ccn1` [Compound 112, N-[1-(2-methyl-4-pyridyl)pyrazol-3-yl]-1-phenyl-cyclopropanecarboxamide], which IC50 [2] is on record?
A: 910 nM

Q: `O=C(Nc1ccn(-c2ccc(Cl)cn2)n1)C1(c2ccccc2F)CC1` [Compound 398, N-(1-(5-chloropyridin-2-yl)-1H-pyrazol-3-yl)-1-(2-fluorophenyl)cyclopropane-1-carboxamide] was tested. Which IC50 [1] did it give?
A: > 5000 nM

Q: Which IC50 [2] does the source give for `O=C(Nc1ccn(-c2ccnc(F)c2)n1)C1(c2ccc(Cl)cc2Cl)CC1` [Compound 253, 1-(2,4-dichlorophenyl)-N-[1-(2-fluoro-4-pyridyl)pyrazol-3-yl]cyclopropanecarboxamide] here?
A: 120 nM

Q: With `O=C(Cc1cccc(Cl)c1)Nc1ccn(-c2ccccc2)n1` [Compound 50, 2-(3-chlorophenyl)-N-(1-phenylpyrazol-3-yl)acetamide] as the compound, how does the IC50 [2] read?
A: > 5000 nM

Q: How did the IC50 [2] turn out when `O=C(Nc1ccn(-c2ccncc2)n1)C1(c2ccccc2F)CC1` [Compound 101, 1-(2-fluorophenyl)-N-[1-(4-pyridyl)pyrazol-3-yl]cyclopropanecarboxamide] was run?
A: 75 nM

Q: `O=C(Nc1ccn(-c2ccccc2)n1)C1(c2cccnc2)CC1` [Compound 224, N-(1-phenylpyrazol-3-yl)-1-(3-pyridyl)cyclopropanecarboxamide] was tested. Which IC50 [2] did it give?
A: 1400 nM

Q: How did the IC50 [2] turn out when `CCOc1ccc(C2(C(=O)Nc3ccn(-c4ccccc4)n3)CC2)cc1` [Compound 33, 1-(4-ethoxyphenyl)-N-(1-phenylpyrazol-3-yl)cyclopropanecarboxamide] was run?
A: 990 nM

Q: For `COc1ncc(-n2ccc(NC(=O)C3(c4ccccc4F)CC3)n2)cc1Cl` [Compound 378, N-(1-(5-chloro-6-methoxypyridin-3-yl)-1H-pyrazol-3-yl)-1-(2-fluorophenyl)cyclopropane-1-carboxamide], which IC50 [1] is on record?
A: 120 nM

Q: Which IC50 [2] does the source give for `O=C(Nc1ccn(-c2ccnc(F)c2)n1)C1(c2ccccc2)CC1(Cl)Cl` (stereo not drawn) [Compound 147, 2,2-dichloro-N-[1-(2-fluoro-4-pyridyl)pyrazol-3-yl]-1-phenyl-cyclopropanecarboxamide] here?
A: 280 nM

Q: How did the IC50 [2] turn out when `O=C(Cn1ccnc1)Nc1ccn(-c2ccnc(F)c2)n1` [Compound 286, N-[1-(2-fluoro-4-pyridyl)pyrazol-3-yl]-2-imidazol-1-yl-acetamide] was run?
A: 5000 nM
